In the supplement of paper PMC10307832:

What was measured:
Assay in all cases: relative viability (nuclei count vs DMSO), 5 days (fraction); higher = more cells survive
Alisertib + Crizotinib = compound: COc1cc(Nc2ncc3c(n2)-c2ccc(Cl)cc2C(c2c(F)cccc2OC)=NC3)ccc1C(=O)O [Alisertib] + C[C@@H](Oc1cc(-c2cnn(C3CCNCC3)c2)cnc1N)c1c(Cl)ccc(F)c1Cl [Crizotinib] (partner 1 µM)
In short: (§1)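 Cells from lung cancer lines were seeded into 1536-well plates and, one day later, dosed by pin tool. Treatments were either a single drug or a fixed dose of an anchor drug with five library-drug doses (not always all listed) in √10 steps. After 5 days, nuclei were stained in a one-step fixation (final 0.05% Triton X-100, 1% formaldehyde, 1 ug/ml Hoechst) and counted on 4× images, and relative viability is the treated-to-vehicle nuclei ratio, as the median of duplicate plates.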

Alisertib + Pictilisib = compound: COc1cc(Nc2ncc3c(n2)-c2ccc(Cl)cc2C(c2c(F)cccc2OC)=NC3)ccc1C(=O)O [Alisertib] + CS(=O)(=O)N1CCN(Cc2cc3nc(-c4cccc5[nH]ncc45)nc(N4CCOCC4)c3s2)CC1 [Pictilisib] (partner 1 µM)
In short: as §1

Alisertib + Dasatinib = compound: COc1cc(Nc2ncc3c(n2)-c2ccc(Cl)cc2C(c2c(F)cccc2OC)=NC3)ccc1C(=O)O [Alisertib] + Cc1nc(Nc2ncc(C(=O)Nc3c(C)cccc3Cl)s2)cc(N2CCN(CCO)CC2)n1 [Dasatinib] (partner 0.075 µM)
In short: as §1

Alisertib + Vorinostat = compound: COc1cc(Nc2ncc3c(n2)-c2ccc(Cl)cc2C(c2c(F)cccc2OC)=NC3)ccc1C(=O)O [Alisertib] + O=C(CCCCCCC(=O)Nc1ccccc1)NO [Vorinostat] (partner 1 µM)
In short: as §1

Row | Cell Line | relative viability (Alisertib + Crizotinib; first compound 0.005 µM) | relative viability (Alisertib + Crizotinib; first compound 0.01581 µM) | relative viability (Alisertib + Crizotinib; first compound 0.05 µM) | relative viability (Alisertib + Crizotinib; first compound 0.1581 µM) | relative viability (Alisertib + Crizotinib; first compound 0.5 µM) | relative viability (Alisertib + Pictilisib; first compound 0.005 µM) | relative viability (Alisertib + Pictilisib; first compound 0.01581 µM) | relative viability (Alisertib + Pictilisib; first compound 0.05 µM) | relative viability (Alisertib + Pictilisib; first compound 0.1581 µM) | relative viability (Alisertib + Pictilisib; first compound 0.5 µM) | relative viability (Alisertib + Dasatinib; first compound 0.005 µM) | relative viability (Alisertib + Dasatinib; first compound 0.01581 µM) | relative viability (Alisertib + Dasatinib; first compound 0.05 µM) | relative viability (Alisertib + Dasatinib; first compound 0.1581 µM) | relative viability (Alisertib + Dasatinib; first compound 0.5 µM) | relative viability (Alisertib + Vorinostat; first compound 0.005 µM) | relative viability (Alisertib + Vorinostat; first compound 0.01581 µM) | relative viability (Alisertib + Vorinostat; first compound 0.05 µM) | relative viability (Alisertib + Vorinostat; first compound 0.1581 µM) | relative viability (Alisertib + Vorinostat; first compound 0.5 µM)
1 | RERF-LC-KJ | 0.831 | 0.662 | 0.692 | 0.206 | 0.196 | 0.49 | 0.517 | 0.435 | 0.206 | 0.159 | 0.73 | 0.672 | 0.366 | 0.187 | 0.17 | 0.626 | 0.507 | 0.391 | 0.252 | 0.213
2 | SK-LU-1 | 0.775 | 0.628 | 0.389 | 0.362 | 0.239 | 0.58 | 0.386 | 0.312 | 0.266 | 0.209 | 0.192 | 0.157 | 0.116 | 0.125 | 0.104 | 0.749 | 0.427 | 0.287 | 0.251 | 0.246
3 | SK-MES-1 | 0.914 | 0.801 | 0.673 | 0.25 | 0.18 | 0.326 | 0.333 | 0.212 | 0.147 | 0.123 | 0.354 | 0.466 | 0.253 | 0.125 | 0.074 | 0.954 | 0.976 | 0.365 | 0.206 | 0.216
4 | SW 1573 | 0.776 | 0.466 | 0.434 | 0.248 | 0.113 | 0.466 | 0.387 | 0.2 | 0.158 | 0.112 | 0.329 | 0.299 | 0.141 | 0.159 | 0.0978 | 0.803 | 0.288 | 0.239 | 0.233 | 0.109
5 | UMC-11 | 0.515 | 0.285 | 0.117 | 0.103 | 0.0832 | 0.316 | 0.379 | 0.129 | 0.137 | 0.133 | 0.32 | 0.184 | 0.157 | 0.144 | 0.127 | 0.262 | 0.169 | 0.113 | 0.118 | 0.161
